Measured values reported in patent publication US20110256068A1, “CONTRAST MEDIA COMPOSITIONS” (priority 2009, published 2011).

Assay: Viscosity at 20° C. by U-tube time of fall technique
Type: physicochemical
Conditions: 350 mgl/ml solution, 10 mM Tris, EDTA 0.1 mg/ml
Procedure: The obtained iodine concentration was 356 mgl/ml. The viscosity was determined to 28.7 mPas at 20° C. The osmolality was determined to 295 mOsm/kg.
a) Preparation of a 350 mgl/ml solution of IIIa containing 10 mM Tris and EDTA (0.1 mg/ml)
To a calibrated flask with a volume of 99.655 ml was added 71.174 g IIIa (water content 2.03%), 153 mg Trizma preset crystals (pH 7.3) and 10 mg EDTA disodium dihydrate followed by 67.330 g Milli-Q water. The mixture was brought to clear solution by intermittent agitation, gentle heating and sonication.
The clear solution with pH=6.95 was filtered through a Millipore Sterivex 0.22 um filter.
b) Preparation of a 350 mgl/ml solution of iopamidol containing 10 mM Tris and EDTA (0.1 mg/ml)
To a calibrated flask with a volume of 99.655 ml was added 72.429 g iopamidol (water content 1.7%), 157 mg Trizma preset crystals (pH 7.3) and 10 mg EDTA disodium dihydrate followed by 66.309 g Milli-Q water. The mixture was brought to clear solution by intermittent agitation, gentle heating and sonication.
The clear solution with pH=6.85 was filtered through a Millipore Sterivex 0.22 um filter.
c) The two solutions from a) and b) were mixed in different proportions according to Table 1. After thorough mixing, the viscosity was determined at 20° C. using conventional U-tube time of fall technique.

| SMILES | Viscosity at 20° C. (100% IIIa / 0% iopamidol by volume) | Viscosity at 20° C. (0% IIIa / 100% iopamidol by volume) |
| --- | --- | --- |
| O=CN(CC(O)CN(C=O)c1c(I)c(C(=O)NCC(O)CO)c(I)c(C(=O)NCC(O)CO)c1I)c1c(I)c(C(=O)NCC(O)CO)c(I)c(C(=O)NCC(O)CO)c1I (centres unmarked) [IIIa, 5,5′-(2-hydroxypropane-1,3-diyl)bis(formylazanediyl)bis(N^1,N^3-bis(2,3-dihydroxypropyl)-2,4,6-triiodoisophthalamide)] | 42.9 mPas |  |
| C[C@H](O)C(=O)Nc1c(I)c(C(=O)NC(CO)CO)c(I)c(C(=O)NC(CO)CO)c1I [iopamidol] |  | 15.8 mPas |
